# Results taken from ChEMBL document CHEMBL4138123, “Design, synthesis and biological evaluation of novel pyrazolochalcones as potential modulators of PI3K/Akt/mTOR pathway and inducers of apoptosis in breast cancer cells” (Eur J Med Chem, 2017).
# Key:
# Assay type in all cases: functional
# OVCAR-3 [1] = test: Cytotoxicity against human OVCAR3 cells assessed as cell growth at 1 uM after 48 hrs by sulforhodamine B assay relative to control; conditions: OVCAR-3, 48 h, read-out: Activity
# T47D = test: Cytotoxicity against human T47D cells assessed as cell growth at 0.1 uM after 48 hrs by sulforhodamine B assay relative to control; conditions: read-out: Activity
# NCI-H23 [2] = test: Cytotoxicity against human NCI-H23 cells assessed as growth inhibition after 48 hrs by sulforhodamine B assay; conditions: NCI-H23, 48 h; for CC50: read-out: LC50 (the source's name)
# SR = test: Cytotoxicity against human SR cells assessed as cell growth at 1 uM after 48 hrs by sulforhodamine B assay relative to control; conditions: read-out: Activity
# PC-3 = test: Cytotoxicity against human PC3 cells assessed as cell growth at 10 uM after 48 hrs by sulforhodamine B assay relative to control; conditions: PC-3, 48 h, read-out: Activity
# SK-MEL-2 = test: Cytotoxicity against human SK-MEL-2 cells assessed as growth inhibition after 48 hrs by sulforhodamine B assay; conditions: SK-MEL-2, 48 h
# SK-MEL-28 = test: Cytotoxicity against human SK-MEL-28 cells assessed as cell growth at 10 uM after 48 hrs by sulforhodamine B assay relative to control; conditions: SK-MEL-28, 48 h, read-out: Activity
# NCI-H522 = test: Cytotoxicity against human NCI-H522 cells assessed as cell growth at 100 uM after 48 hrs by sulforhodamine B assay relative to control; conditions: NCI-H522, 48 h, read-out: Activity
# OVCAR-3 [3] = test: Cytotoxicity against human OVCAR3 cells assessed as cell growth at 0.1 uM after 48 hrs by sulforhodamine B assay relative to control; conditions: OVCAR-3, 48 h, read-out: Activity
# MOLT-4 = test: Cytotoxicity against human MOLT4 cells assessed as cell growth at 1 uM after 48 hrs by sulforhodamine B assay relative to control; conditions: MOLT-4, 48 h, read-out: Activity
# 786-0 = test: Cytotoxicity against human 786-0 cells assessed as cell growth at 1 uM after 48 hrs by sulforhodamine B assay relative to control; conditions: 786-0, 48 h, read-out: Activity
# NCI-H322M = test: Cytotoxicity against human NCI-H322M cells assessed as cell growth at 10 uM after 48 hrs by sulforhodamine B assay relative to control; conditions: read-out: Activity
# SW-620 [4] = test: Cytotoxicity against human SW620 cells assessed as cell growth at 100 uM after 48 hrs by sulforhodamine B assay relative to control; conditions: SW-620, 48 h, read-out: Activity
# Hs-578T = test: Cytotoxicity against human Hs 578T cells assessed as cell growth at 1 uM after 48 hrs by sulforhodamine B assay relative to control; conditions: read-out: Activity
# SN12C = test: Cytotoxicity against human SN12C cells assessed as cell growth at 100 uM after 48 hrs by sulforhodamine B assay relative to control; conditions: read-out: Activity
# IGROV-1 = test: Cytotoxicity against human IGROV1 cells assessed as cell growth at 100 uM after 48 hrs by sulforhodamine B assay relative to control; conditions: IGROV-1, 48 h, read-out: Activity
# SF-268 = test: Cytotoxicity against human SF268 cells assessed as growth inhibition after 48 hrs by sulforhodamine B assay; conditions: SF-268, 48 h; for CC50: read-out: LC50 (the source's name)
# MDA-MB-231 = test: Cytotoxicity against human MDA-MB-231 cells assessed as cell growth at 1 uM after 48 hrs by sulforhodamine B assay relative to control; conditions: MDA-MB-231, 48 h, read-out: Activity
# SNB-19 = test: Cytotoxicity against human SNB19 cells assessed as cell growth at 10 uM after 48 hrs by sulforhodamine B assay relative to control; conditions: SNB-19, 48 h, read-out: Activity
# U-251 = test: Cytotoxicity against human U251 cells assessed as cell growth at 0.1 uM after 48 hrs by sulforhodamine B assay relative to control; conditions: U-251, 48 h, read-out: Activity
# MCF7 = test: Cytotoxicity against human MCF7 cells assessed as cell growth at 0.01 uM after 48 hrs by sulforhodamine B assay relative to control; conditions: MCF7, 48 h, read-out: Activity
# CCRF-CEM [5] = test: Cytotoxicity against human CCRF-CEM cells assessed as growth inhibition after 48 hrs by sulforhodamine B assay
# NCI-H23 [6] = test: Cytotoxicity against human NCI-H23 cells assessed as cell growth at 10 uM after 48 hrs by sulforhodamine B assay relative to control; conditions: NCI-H23, 48 h, read-out: Activity
# HL-60(TB) = test: Cytotoxicity against human HL-60(TB) cells assessed as cell growth at 10 uM after 48 hrs by sulforhodamine B assay relative to control; conditions: HL-60, 48 h, read-out: Activity
# SW-620 [7] = test: Cytotoxicity against human SW620 cells assessed as cell growth at 0.01 uM after 48 hrs by sulforhodamine B assay relative to control; conditions: SW-620, 48 h, read-out: Activity
# HOP-62 [8] = test: Cytotoxicity against human HOP62 cells assessed as growth inhibition after 48 hrs by sulforhodamine B assay; conditions: HOP-62, 48 h
# NCI-H460 = test: Cytotoxicity against human NCI-H460 cells assessed as cell growth at 10 uM after 48 hrs by sulforhodamine B assay relative to control; conditions: NCI-H460, 48 h, read-out: Activity
# HCT-15 = test: Cytotoxicity against human HCT15 cells assessed as cell growth at 1 uM after 48 hrs by sulforhodamine B assay relative to control; conditions: HCT-15, 48 h, read-out: Activity
# UO-31 = test: Cytotoxicity against human UO31 cells assessed as cell growth at 0.1 uM after 48 hrs by sulforhodamine B assay relative to control; conditions: UO-31, 48 h, read-out: Activity
# RPMI-8226 = test: Cytotoxicity against human RPMI8226 cells assessed as cell growth at 0.01 uM after 48 hrs by sulforhodamine B assay relative to control; conditions: RPMI-8226, 48 h, read-out: Activity
# KM12 = test: Cytotoxicity against human KM12 cells assessed as cell growth at 10 uM after 48 hrs by sulforhodamine B assay relative to control; conditions: KM12, 48 h, read-out: Activity
# M14 = test: Cytotoxicity against human M14 cells assessed as cell growth at 10 uM after 48 hrs by sulforhodamine B assay relative to control; conditions: M14, 48 h, read-out: Activity
# CCRF-CEM [9] = test: Cytotoxicity against human CCRF-CEM cells assessed as cell growth at 100 uM after 48 hrs by sulforhodamine B assay relative to control; conditions: read-out: Activity
# MDA-MB-468 = test: Cytotoxicity against human MDA-MB-468 cells assessed as growth inhibition after 48 hrs by sulforhodamine B assay; conditions: MDA-MB-468, 48 h
# HOP-62 [10] = test: Cytotoxicity against human HOP62 cells assessed as cell growth at 10 uM after 48 hrs by sulforhodamine B assay relative to control; conditions: HOP-62, 48 h, read-out: Activity
compound,measurement,setting,value
COc1ccc(-c2cc(/C=C/C(=O)c3cc(OC)c(OC)c(OC)c3)[nH]n2)cc1OC,growth at 1 µM,OVCAR-3 [1],84%
same,growth at 0.1 µM,T47D,83%
same,GI50,NCI-H23 [2],1.97 µM
same,TGI,NCI-H23 [2],4.91 µM
same,CC50,NCI-H23 [2],> 100 µM
same,growth at 1 µM,SR,5%
same,growth at 10 µM,PC-3,1%
same,GI50,SK-MEL-2,2.69 µM
same,LC50 (concentration killing 50% of cells),SK-MEL-2,29.5 µM
same,TGI,SK-MEL-2,7.7 µM
same,growth at 10 µM,SK-MEL-28,-49%
same,growth at 100 µM,NCI-H522,-90%
same,growth at 0.1 µM,OVCAR-3 [3],100%
same,growth at 1 µM,MOLT-4,69%
same,growth at 1 µM,786-0,81%
same,growth at 10 µM,NCI-H322M,-23%
same,growth at 100 µM,SW-620 [4],-43%
same,growth at 1 µM,Hs-578T,86%
same,growth at 100 µM,SN12C,-67%
same,growth at 100 µM,IGROV-1,-72%
same,GI50,SF-268,1.68 µM
same,TGI,SF-268,3.9 µM
same,CC50,SF-268,9.03 µM
same,growth at 1 µM,MDA-MB-231,67%
same,growth at 10 µM,SNB-19,-29%
same,growth at 0.1 µM,U-251,92%
same,growth at 0.01 µM,MCF7,92%
same,GI50,CCRF-CEM [5],0.34 µM
same,LC50 (concentration killing 50% of cells),CCRF-CEM [5],> 100 µM
same,TGI,CCRF-CEM [5],3.13 µM
same,growth at 10 µM,NCI-H23 [6],-39%
same,growth at 10 µM,HL-60(TB),2%
same,growth at 0.01 µM,SW-620 [7],98%
same,GI50,HOP-62 [8],1.45 µM
same,LC50,HOP-62 [8],8.85 µM
same,TGI,HOP-62 [8],3.58 µM
same,growth at 10 µM,NCI-H460,-41%
same,growth at 1 µM,HCT-15,57%
same,growth at 0.1 µM,UO-31,82%
same,growth at 0.01 µM,RPMI-8226,97%
same,growth at 10 µM,KM12,-81%
same,growth at 10 µM,M14,-70%
same,growth at 100 µM,CCRF-CEM [9],-13%
same,GI50,MDA-MB-468,1.33 µM
same,LC50,MDA-MB-468,8.03 µM
same,TGI,MDA-MB-468,3.27 µM
same,growth at 10 µM,HOP-62 [10],-57%
COc1ccc(C(=O)/C=C/c2cc(-c3cc(OC)c(OC)c(OC)c3)n[nH]2)cc1,growth at 1 µM,OVCAR-3 [1],89%
same,growth at 0.1 µM,T47D,93%
same,TGI,NCI-H23 [2],12.2 µM
same,CC50,NCI-H23 [2],> 100 µM
same,growth at 1 µM,SR,22%
same,growth at 10 µM,PC-3,-68%
same,LC50 (concentration killing 50% of cells),SK-MEL-2,99.2 µM
same,TGI,SK-MEL-2,19.6 µM
same,growth at 10 µM,SK-MEL-28,-55%
same,growth at 100 µM,NCI-H522,-62%
same,growth at 0.1 µM,OVCAR-3 [3],101%
same,growth at 1 µM,MOLT-4,102%
same,growth at 1 µM,786-0,94%
same,growth at 10 µM,NCI-H322M,-60%
same,growth at 100 µM,SW-620 [4],-39%
same,growth at 1 µM,Hs-578T,96%
same,growth at 100 µM,SN12C,7%
same,growth at 100 µM,IGROV-1,-29%
same,TGI,SF-268,5.12 µM
same,CC50,SF-268,> 100 µM
same,growth at 1 µM,MDA-MB-231,81%
same,growth at 10 µM,SNB-19,-85%
same,growth at 0.1 µM,U-251,97%
same,growth at 0.01 µM,MCF7,101%
same,LC50 (concentration killing 50% of cells),CCRF-CEM [5],> 100 µM
same,TGI,CCRF-CEM [5],5.85 µM
same,growth at 10 µM,NCI-H23 [6],2%
same,growth at 10 µM,HL-60(TB),-47%
same,growth at 0.01 µM,SW-620 [7],99%
same,LC50,HOP-62 [8],8.07 µM
same,TGI,HOP-62 [8],3.77 µM
same,growth at 10 µM,NCI-H460,-63%
same,growth at 1 µM,HCT-15,72%
same,growth at 0.1 µM,UO-31,96%
same,growth at 0.01 µM,RPMI-8226,98%
same,growth at 10 µM,KM12,-88%
same,growth at 10 µM,M14,-44%
same,growth at 100 µM,CCRF-CEM [9],-16%
same,GI50,MDA-MB-468,1.29 µM
same,LC50,MDA-MB-468,5.45 µM
same,TGI,MDA-MB-468,2.65 µM
same,growth at 10 µM,HOP-62 [10],-64%
